Assay results as given in publication PMC11645267, “Novel pharmacologic inhibition of lysine-specific demethylase 1 as a potential therapeutic for glioblastoma” (Cancer Gene Therapy, 2024).

Legend:
Assay type in all cases: cell-based
F3 [1] = experiment: Cell proliferation assay (Cell Counting Kit 8); conditions: 96 h; F3 (normal neural stem cell line), 4 days; read-out: Growth inhibitory IC50 (GI50)
Description: (§1) Supplementary materials and methods […]
(§2) Cell lines and culture conditions
(§3) Glioblastoma cell line, LN229, was obtained from the American Type Culture Collection (ATCC, Manassas, VA, USA). Normal fibroblast cell lines TIG3 and WI-38, TM31 (low grade glioma) were obtained from the RIKEN Bioresource Research Center (Tsukuba, Japan). Onda10 and KINGS1 (low grade glioma) cell lines were obtained from the Japanese Collection of Research Bioresources (Ibaraki, Japan). F3 is utilized as a neural stem cell line{Kim, 2004 #1412}{Natsume, 2013 #1009}. All cells were maintained in DMEM medium (Wako, Osaka, Japan) containing 5% fetal bovine serum (FBS, Thermo Fisher Scientific, Waltham, MA, USA) and 1% penicillin-streptomycin (Wako). […]
(§4) For the cell proliferation assay, cells at a density of 1 × 10^5 cells per well were seeded before treatment with LSD1 inhibitors. Cell proliferation was measured after 4 days using a Cell Counting Kit 8 (Dojindo, Kumamoto, Japan) according to the manufacturer ’s […]
(§5) instructions. For GSC cells, the CellTiter-Glo 3D Viability Assay (Promega, Madison, WI, USA) was used to measure the living cells. […]

LN229 = experiment: Cell proliferation assay (Cell Counting Kit 8); conditions: Homo sapiens, LN-229, 96 h; LN229 (GBM cell line), 4 days; read-out: Growth inhibitory IC50 (GI50)
Description: as §1, §2, §3, §4, §5

KINGS1 = experiment: Cell proliferation assay (Cell Counting Kit 8); conditions: Homo sapiens, KINGS-1, 96 h; KINGS1 (grade III glioma), 4 days; read-out: Growth inhibitory IC50 (GI50)
Description: as §1, §2, §3, §4, §5

TIG3 = experiment: Cell proliferation assay (Cell Counting Kit 8); conditions: Homo sapiens, TIG-3, 96 h; TIG3 (normal fibroblast), 4 days; read-out: Growth inhibitory IC50 (GI50)
Description: as §1, §2, §3, §4, §5

TM31 = experiment: Cell proliferation assay (Cell Counting Kit 8); conditions: 96 h; TM31 (grade III glioma), 4 days; read-out: Growth inhibitory IC50 (GI50)
Description: as §1, §2, §3, §4, §5

WI38 = experiment: Cell proliferation assay (Cell Counting Kit 8); conditions: Homo sapiens, WI-38, 96 h; WI38 (normal fibroblast), 4 days; read-out: Growth inhibitory IC50 (GI50)
Description: as §1, §2, §3, §4, §5

Onda10 = experiment: Cell proliferation assay (Cell Counting Kit 8); conditions: 96 h; Onda10 (grade III glioma), 4 days; read-out: Growth inhibitory IC50 (GI50)
Description: as §1, §2, §3, §4, §5

F3 [2] = experiment: Western blot of global histone modifications; conditions: F3, 5 μM, 96 h
Protocol: The effects of S2172 on global histone modifications in GSCs were examined using western blot analysis. GSC cells were treated with 5 μM of S2172 since […] of the cells are still viable at this concentration (Fig. 2, Supplementary Fig. S1E). […] Treatment of GSCs with S2172 increased the overall levels of H3K4me2 as well as H3K9me2. However, these changes were not statistically significant (Fig. 2A, B). […]
instructions. For GSC cells, the CellTiter-Glo 3D Viability Assay (Promega, Madison, WI, USA) was used to measure the living cells. All proliferation experiments were repeated […]
The density of bands was quantified using ImageJ software (https://imagej.nih.gov/ij/). […]
When mice were scanned with MRI, mice were anesthetized with isoflurane (3% in air) and placed in MRS 3017 Benchtop MRI Systems (MR Solutions, Guildford, UK). Using MRI images, tumor volumes were obtained by compiling tumor areas from all slices that contained tumors and calculated by ImageJ software (https://imagej.nih.gov/ij/) {Towner, […]
A. Left panel: Western blot analysis of H3K4me1, H3K4me2, H3K4me3, and H3K9me2 after treatment with either DMSO or S2172 5μM for 96 h in normal neural stem cell F3 . […] Right panel: Quantification of signal intensities of the Western blot. […]
C. […] Right panel: Quantification of band signal intensities from the Western blot. […]

Structure (SMILES): NC1CCC(NC2CC2c2cc(F)cc(F)c2OCc2ccccc2)CC1 (centres unmarked) [S2172]
- IC50 (F3 [1]): 22.5 µM
- IC50 (LN229): 8.2 µM
- IC50 (KINGS1): 33 µM
- IC50 (TIG3): > 40 µM
- IC50 (TM31): 17 µM
- IC50 (WI38): 29.9 µM
- IC50 (Onda10): 21 µM
- changes in the levels of H3K4me1, H3K4me2, H3K4me3, and H3K9me2 (F3 [2]): not significant
